This note sets out measurements from ChEMBL document CHEMBL1137150, “Factor Xa inhibitors based on a 2-carboxyindole scaffold: SAR of neutral P1 substituents” (Bioorg Med Chem Lett, 2004).

One data set deals with Coagulation factor X (Homo sapiens, UniProt P00742). Kind of data set: Inhibitory activity against coagulation factor Xa.
A further data set deals with Serine protease 1 (Homo sapiens, UniProt P07477). Kind of data set: […].
A short description of data set [1]: Percent compound remaining after 2 hr incubation with human S9 liver fraction. The settings on record: read-out: Activity. The class given is ADME, subcellular.
For data set [2], the target named is T1, Prothrombin (Homo sapiens, UniProt P00734). Kind of data set: Concentration required for 50% inhibition of dilute prothrombin time. It is filed as functional.
The target in data set [3] is T1, Prothrombin. The experiment in a line: Inhibitory activity against coagulation factor II (thrombin).
Data set [4] deals with Tissue-type plasminogen activator (Homo sapiens, UniProt P00750). The experiment in a line: inhibitory activity against human tissue plasminogen activator.
Tissue-type plasminogen activator, sequence (P00750 whole entry): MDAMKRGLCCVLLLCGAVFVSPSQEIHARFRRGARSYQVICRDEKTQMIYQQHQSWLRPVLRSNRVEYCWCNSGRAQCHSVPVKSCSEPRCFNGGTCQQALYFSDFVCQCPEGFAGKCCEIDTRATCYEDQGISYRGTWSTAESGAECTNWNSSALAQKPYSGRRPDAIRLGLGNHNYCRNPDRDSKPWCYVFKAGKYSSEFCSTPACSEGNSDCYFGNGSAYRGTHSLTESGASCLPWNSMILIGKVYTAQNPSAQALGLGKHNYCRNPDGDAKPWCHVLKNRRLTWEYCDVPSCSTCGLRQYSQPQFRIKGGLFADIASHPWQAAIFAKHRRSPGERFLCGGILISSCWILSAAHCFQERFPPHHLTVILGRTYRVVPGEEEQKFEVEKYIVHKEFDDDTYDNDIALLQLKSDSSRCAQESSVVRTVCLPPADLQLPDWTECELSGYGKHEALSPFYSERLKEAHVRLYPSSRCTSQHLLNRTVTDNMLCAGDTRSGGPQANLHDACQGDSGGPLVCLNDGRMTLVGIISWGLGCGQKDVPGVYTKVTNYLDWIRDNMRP
Data set [5] concerns the target T1, Prothrombin. Kind of data set: Concentration required to double plasma clotting time of prothrombin time. The class given is functional, cell-free.

Bounds are passed on as bounds.

Serine protease 1, sequence (P07477 whole entry): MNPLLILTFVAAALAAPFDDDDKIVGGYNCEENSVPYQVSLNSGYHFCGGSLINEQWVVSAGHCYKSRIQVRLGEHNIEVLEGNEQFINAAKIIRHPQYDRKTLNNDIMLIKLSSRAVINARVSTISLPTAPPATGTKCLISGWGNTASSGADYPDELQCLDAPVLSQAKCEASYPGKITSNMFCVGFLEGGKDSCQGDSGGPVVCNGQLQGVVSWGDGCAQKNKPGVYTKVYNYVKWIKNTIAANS
Coagulation factor X, sequence (P00742 41-179 limits assumed): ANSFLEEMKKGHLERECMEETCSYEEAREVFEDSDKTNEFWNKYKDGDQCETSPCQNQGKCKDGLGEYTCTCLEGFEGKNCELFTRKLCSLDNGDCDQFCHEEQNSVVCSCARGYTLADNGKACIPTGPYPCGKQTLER
Coagulation factor X, sequence (P00742 235-488 limits assumed): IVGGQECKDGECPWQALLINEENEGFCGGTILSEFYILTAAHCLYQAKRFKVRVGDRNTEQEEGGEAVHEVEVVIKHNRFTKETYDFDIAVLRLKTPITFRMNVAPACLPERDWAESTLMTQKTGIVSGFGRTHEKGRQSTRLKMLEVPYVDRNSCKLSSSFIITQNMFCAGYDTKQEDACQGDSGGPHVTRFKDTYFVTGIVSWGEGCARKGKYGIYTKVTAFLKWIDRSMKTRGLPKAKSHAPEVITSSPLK

The compound `CC(C)N1CCC(NC(=O)c2cc3ccccc3n2Cc2cnc(-c3ccc(Cl)cc3)s2)CC1` returned a Ki on Coagulation factor X of 2.73 µM.
Compound `CC(C)N1CCC(NC(=O)c2cc3ccccc3n2Cc2cc(-c3ccc(Cl)s3)on2)CC1` came in with an inhibition constant Ki at Serine protease 1 greater than 100 µM. The remaining at 2 h in data set [1] was 94%.
Take `COc1cccc(-n2c(C(=O)NC3CCN(C(C)C)CC3)cc3ccccc32)c1`: the affinity at Coagulation factor X, expressed as Ki, was 2.48 µM.
Same read-out and setting: the figure for `CC(C)N1CCC(NC(=O)c2cc3ccccc3n2CC(=O)Nc2cccc(Cl)c2)CC1` is 0.287 µM.
Turning to `CC(C)N1CCC(NC(=O)c2cc3ccccc3n2CC(=O)Nc2ccc(Cl)cc2)CC1`, the Ki on Serine protease 1 is greater than 100 µM; on Prothrombin [3] it was greater than 10 µM; in data set [4] it was greater than 100 µM. On Prothrombin [2], this compound displayed a 50% inhibitory concentration (IC50) of 0.02 µM. Also, in data set [1], the remaining at 2 h came out at 67%.
Turning to `CC(C)N1CCC(NC(=O)c2cc3ccccc3n2Cc2cc3ccc(Cl)cc3s2)CC1`, the Ki at Serine protease 1 is greater than 100 µM; at Prothrombin [3], 9.04 µM; in data set [4], greater than 100 µM. Also, the Concentration at Prothrombin [5] turned out to be 14.1 µM. The same compound registered an IC50 on Prothrombin [2] of 0.89 µM. Further, in data set [1], the remaining at 2 h was determined as 98%.
`CC(C)N1CCC(NC(=O)c2cc3ccccc3n2Cc2ccc(Cl)cc2)CC1`: at Coagulation factor X, the affinity corresponds to a Ki of 2.5 µM.
At Coagulation factor X, `COc1cccc(CCn2c(C(=O)NC3CCN(C(C)C)CC3)cc3ccccc32)c1` came in with an inhibition constant (Ki) greater than 10 µM.
On the same count and under the same terms, the figure for `CC(C)N1CCC(NC(=O)c2cc3ccccc3n2-c2cccc(Cl)c2)CC1` is 9.01 µM.
With `CC(C)N1CCC(NC(=O)c2cc3ccccc3n2CC(=O)Nc2ccc(Cl)cn2)CC1`, the inhibition constant (Ki) is greater than 100 µM at Serine protease 1, greater than 10 µM on Prothrombin [3] and greater than 100 µM in data set [4]. The compound further had an IC50 on Prothrombin [2] of 0.02 µM. Also, the remaining at 2 h in data set [1] is 95%.

The term Ki denotes a measure of affinity in units of concentration, obtained from inhibition or displacement. For orientation: IC50 means the concentration that inhibits the measured activity by half. Read a low IC50 as greater potency in that assay.
